Measured values taken from ChEMBL document CHEMBL4152300, “Discovery of the selective and efficacious inhibitors of FLT3 mutations” (Eur J Med Chem, 2018).

Legend:
[1] = molecular target: T1, Receptor-type tyrosine-protein kinase FLT3 (Homo sapiens, UniProt P36888); assay: Inhibition of human FLT3 assessed as residual activity at 0.123 uM by Hotspot assay relative to control
[2] = molecular target: T2, CDK2 (cyclin-dependent kinase 2) (Homo sapiens, UniProt P24941); assay: Inhibition of CDK2 (unknown origin) assessed as residual activity at 0.123 uM by Hotspot assay relative to control; conditions: CDK2 enzyme (unknown origin), read-out: Activity
[3] = molecular target: T3, Cyclin-dependent kinase 6 (Homo sapiens, UniProt Q00534); assay: Inhibition of CDK6 (unknown origin) assessed as residual activity at 0.123 uM by Hotspot assay relative to control
T3 sequence (Q00534 whole entry): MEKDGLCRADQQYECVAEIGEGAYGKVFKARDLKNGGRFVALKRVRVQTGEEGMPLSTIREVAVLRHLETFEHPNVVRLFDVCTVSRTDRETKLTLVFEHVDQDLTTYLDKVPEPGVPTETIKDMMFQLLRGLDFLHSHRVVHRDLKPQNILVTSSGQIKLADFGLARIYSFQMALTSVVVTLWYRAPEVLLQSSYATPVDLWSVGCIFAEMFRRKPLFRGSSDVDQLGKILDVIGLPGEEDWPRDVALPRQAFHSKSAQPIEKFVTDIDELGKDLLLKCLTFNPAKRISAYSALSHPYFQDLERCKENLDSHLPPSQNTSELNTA

[4] = molecular target: T4, Receptor-type tyrosine-protein kinase FLT3 (Homo sapiens, UniProt P36888)
T4 sequence (P36888 whole entry): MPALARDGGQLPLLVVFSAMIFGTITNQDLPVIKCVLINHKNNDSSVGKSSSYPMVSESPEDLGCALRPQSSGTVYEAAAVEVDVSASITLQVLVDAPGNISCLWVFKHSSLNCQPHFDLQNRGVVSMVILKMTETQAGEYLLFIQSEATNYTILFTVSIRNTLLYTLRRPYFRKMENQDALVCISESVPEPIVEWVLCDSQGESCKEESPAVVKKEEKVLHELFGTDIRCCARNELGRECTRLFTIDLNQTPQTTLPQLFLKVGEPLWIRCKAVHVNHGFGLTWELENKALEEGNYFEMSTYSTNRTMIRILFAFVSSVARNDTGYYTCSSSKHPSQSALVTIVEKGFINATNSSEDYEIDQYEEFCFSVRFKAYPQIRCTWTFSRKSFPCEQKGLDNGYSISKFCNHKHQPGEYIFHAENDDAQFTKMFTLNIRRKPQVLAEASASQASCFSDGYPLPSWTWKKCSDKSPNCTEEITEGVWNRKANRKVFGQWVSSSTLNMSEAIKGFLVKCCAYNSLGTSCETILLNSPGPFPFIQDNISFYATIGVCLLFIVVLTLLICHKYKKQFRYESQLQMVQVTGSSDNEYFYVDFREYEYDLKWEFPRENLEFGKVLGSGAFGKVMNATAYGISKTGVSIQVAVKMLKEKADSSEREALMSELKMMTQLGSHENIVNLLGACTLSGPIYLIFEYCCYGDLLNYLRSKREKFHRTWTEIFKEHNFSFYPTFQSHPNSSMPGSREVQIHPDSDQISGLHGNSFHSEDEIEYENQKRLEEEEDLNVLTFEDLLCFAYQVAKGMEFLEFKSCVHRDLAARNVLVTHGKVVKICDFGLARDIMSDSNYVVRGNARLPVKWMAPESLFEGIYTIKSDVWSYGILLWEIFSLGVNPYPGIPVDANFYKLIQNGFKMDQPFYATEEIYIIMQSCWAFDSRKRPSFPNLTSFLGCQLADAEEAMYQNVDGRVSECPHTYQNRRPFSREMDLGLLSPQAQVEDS
Description: Inhibition of human FLT3 by Hotspot assay

MV4-11 = assay: Growth inhibition of human MV4-11 cells harboring FLT3-ITD after 72 hrs by Cell-Titer Glo assay; format: functional, cell-based; conditions: MV4-11, 72 h
[5] = molecular target: Cyclin-dependent kinase 2 (Homo sapiens, UniProt P24941); assay: Inhibition of CDK2 (unknown origin) by Hotspot assay
[6] = molecular target: T3, Cyclin-dependent kinase 6; assay: Inhibition of CDK6 (unknown origin) at 0.123 uM by Hotspot assay relative to control
[7] = molecular target: T3, Cyclin-dependent kinase 6; assay: Inhibition of CDK6 (unknown origin) by Hotspot assay
[8] = molecular target: T2, CDK2 (cyclin-dependent kinase 2); assay: Inhibition of CDK2 (unknown origin) at 0.123 uM by Hotspot assay relative to control; conditions: CDK2 enzyme (unknown origin)
[9] = Half life in human liver microsomes preincubated for 5 mins followed by NADPH addition by LC-MS/MS analysis; format: ADME, microsome
[10] = molecular target: Mitogen-activated protein kinase 15 (Homo sapiens, UniProt Q8TD08); assay: Inhibition of human ERK7 at 0.123 uM by Hotspot assay
Mitogen-activated protein kinase 15, sequence (Q8TD08 whole entry): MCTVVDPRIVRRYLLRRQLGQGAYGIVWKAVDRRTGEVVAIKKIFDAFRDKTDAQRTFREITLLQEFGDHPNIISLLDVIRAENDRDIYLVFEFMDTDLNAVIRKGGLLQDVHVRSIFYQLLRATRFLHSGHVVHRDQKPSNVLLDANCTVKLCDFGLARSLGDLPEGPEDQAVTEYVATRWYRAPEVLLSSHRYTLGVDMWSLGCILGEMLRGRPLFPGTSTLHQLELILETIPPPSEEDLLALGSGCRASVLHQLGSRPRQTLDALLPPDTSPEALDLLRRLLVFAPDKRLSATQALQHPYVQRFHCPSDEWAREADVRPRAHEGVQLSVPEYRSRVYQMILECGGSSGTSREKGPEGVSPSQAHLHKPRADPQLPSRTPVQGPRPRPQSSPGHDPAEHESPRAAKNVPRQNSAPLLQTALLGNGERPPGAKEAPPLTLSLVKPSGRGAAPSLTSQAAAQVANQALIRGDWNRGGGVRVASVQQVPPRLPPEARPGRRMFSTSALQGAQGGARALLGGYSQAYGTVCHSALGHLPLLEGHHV

HL-60 = assay: Growth inhibition of human HL60 cells expressing low levels of FLT3 after 72 hrs by Cell-Titer Glo assay; format: functional, cell-based; conditions: HL-60, 72 h
[11] = molecular target: Cyclin-dependent kinase 4/cyclin D1 (Homo sapiens, UniProt P11802); assay: Inhibition of human CDK4/Cyclin-D1 at 0.123 uM by Hotspot assay; format: protein-complex assay
Cyclin-dependent kinase 4/cyclin D1, sequence (P11802 whole entry): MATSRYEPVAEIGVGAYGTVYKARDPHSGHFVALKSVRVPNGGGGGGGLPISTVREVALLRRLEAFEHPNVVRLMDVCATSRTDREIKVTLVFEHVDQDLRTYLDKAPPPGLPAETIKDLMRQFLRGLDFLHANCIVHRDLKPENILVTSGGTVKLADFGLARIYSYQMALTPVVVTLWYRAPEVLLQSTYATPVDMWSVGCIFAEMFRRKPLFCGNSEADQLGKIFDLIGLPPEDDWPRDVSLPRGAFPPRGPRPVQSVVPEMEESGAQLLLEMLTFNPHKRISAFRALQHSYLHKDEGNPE
Cyclin-dependent kinase 4/cyclin D1, sequence (P24385 whole entry, further chain): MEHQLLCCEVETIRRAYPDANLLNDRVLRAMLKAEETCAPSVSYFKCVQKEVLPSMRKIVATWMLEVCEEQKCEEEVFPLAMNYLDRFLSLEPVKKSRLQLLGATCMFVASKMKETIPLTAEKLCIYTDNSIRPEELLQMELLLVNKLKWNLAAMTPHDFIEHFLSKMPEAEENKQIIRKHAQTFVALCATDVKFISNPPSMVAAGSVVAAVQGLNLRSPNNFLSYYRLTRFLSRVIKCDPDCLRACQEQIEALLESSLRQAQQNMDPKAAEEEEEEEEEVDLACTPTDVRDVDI

K562 = assay: Growth inhibition of FLT3 null human K562 cells after 72 hrs by Cell-Titer Glo assay; format: functional, cell-based; conditions: K562, 72 h
[12] = molecular target: Receptor-type tyrosine-protein kinase FLT3 (Homo sapiens, UniProt P36888, F691L/ITD); assay: Binding affinity to human FLT3 ITD/F691L double mutant expressed in bacterial expression system by Kinomescan method
CDK6/cyclin D1 = CDK6/cyclin D1 (Homo sapiens, UniProt Q00534); assay: Inhibition of human CDK6/Cyclin-D1 at 0.123 uM by Hotspot assay; format: protein-complex assay
CDK6/cyclin D1, sequence (P24385 whole entry): as the sequence (P24385 whole entry, further chain) above
CDK6/cyclin D1, sequence (Q00534 whole entry): as the sequence (Q00534 whole entry) above

[13] = molecular target: T1, Receptor-type tyrosine-protein kinase FLT3; assay: Inhibition of human FLT3 F594_R595insREY mutant by Hotspot assay
[14] = molecular target: T1, Receptor-type tyrosine-protein kinase FLT3; assay: Inhibition of human FLT3 F594_R595insR mutant by Hotspot assay
[15] = molecular target: T5, Receptor-type tyrosine-protein kinase FLT3 (Homo sapiens, UniProt P36888, ITD); assay: Inhibition of human FLT3 ITD-W51 mutant by Hotspot assay
[16] = molecular target: T6, Receptor-type tyrosine-protein kinase FLT3 (Homo sapiens, UniProt P36888, D835Y); assay: Binding affinity to human FLT3 D835Y mutant (Q580 to Y969 residues) expressed in bacterial expression system by Kinomescan method
[17] = molecular target: T1, Receptor-type tyrosine-protein kinase FLT3; assay: Inhibition of human FLT3 R595_E596 mutant by Hotspot assay
CDK2/Cyclin A2 = CDK2/Cyclin A2 (Homo sapiens, UniProt P24941); assay: Inhibition of human CDK2/Cyclin-A at 0.123 uM by Hotspot assay; format: protein-complex assay
[18] = molecular target: T6, Receptor-type tyrosine-protein kinase FLT3; assay: Inhibition of human FLT3 D835Y mutant by Hotspot assay
[19] = Drug uptake in human liver microsomes up to 60 mins by LC-MS/MS analysis; format: ADME, microsome; conditions: 1 h
[20] = molecular target: T1, Receptor-type tyrosine-protein kinase FLT3; assay: Inhibition of human FLT3 Y591-V592 mutant by Hotspot assay
[21] = molecular target: T5, Receptor-type tyrosine-protein kinase FLT3; assay: Inhibition of human FLT3 ITD-NPOS mutant by Hotspot assay
MOLM-13 = assay: Growth inhibition of human MOLM13 cells harboring FLT3-ITD after 72 hrs by Cell-Titer Glo assay; format: functional, cell-based; conditions: MOLM-13, 72 h
[22] = molecular target: Vascular endothelial growth factor receptor 3 (Homo sapiens, UniProt P35916); assay: Inhibition of human FLT4 by Hotspot assay
Vascular endothelial growth factor receptor 3, sequence (P35916 whole entry): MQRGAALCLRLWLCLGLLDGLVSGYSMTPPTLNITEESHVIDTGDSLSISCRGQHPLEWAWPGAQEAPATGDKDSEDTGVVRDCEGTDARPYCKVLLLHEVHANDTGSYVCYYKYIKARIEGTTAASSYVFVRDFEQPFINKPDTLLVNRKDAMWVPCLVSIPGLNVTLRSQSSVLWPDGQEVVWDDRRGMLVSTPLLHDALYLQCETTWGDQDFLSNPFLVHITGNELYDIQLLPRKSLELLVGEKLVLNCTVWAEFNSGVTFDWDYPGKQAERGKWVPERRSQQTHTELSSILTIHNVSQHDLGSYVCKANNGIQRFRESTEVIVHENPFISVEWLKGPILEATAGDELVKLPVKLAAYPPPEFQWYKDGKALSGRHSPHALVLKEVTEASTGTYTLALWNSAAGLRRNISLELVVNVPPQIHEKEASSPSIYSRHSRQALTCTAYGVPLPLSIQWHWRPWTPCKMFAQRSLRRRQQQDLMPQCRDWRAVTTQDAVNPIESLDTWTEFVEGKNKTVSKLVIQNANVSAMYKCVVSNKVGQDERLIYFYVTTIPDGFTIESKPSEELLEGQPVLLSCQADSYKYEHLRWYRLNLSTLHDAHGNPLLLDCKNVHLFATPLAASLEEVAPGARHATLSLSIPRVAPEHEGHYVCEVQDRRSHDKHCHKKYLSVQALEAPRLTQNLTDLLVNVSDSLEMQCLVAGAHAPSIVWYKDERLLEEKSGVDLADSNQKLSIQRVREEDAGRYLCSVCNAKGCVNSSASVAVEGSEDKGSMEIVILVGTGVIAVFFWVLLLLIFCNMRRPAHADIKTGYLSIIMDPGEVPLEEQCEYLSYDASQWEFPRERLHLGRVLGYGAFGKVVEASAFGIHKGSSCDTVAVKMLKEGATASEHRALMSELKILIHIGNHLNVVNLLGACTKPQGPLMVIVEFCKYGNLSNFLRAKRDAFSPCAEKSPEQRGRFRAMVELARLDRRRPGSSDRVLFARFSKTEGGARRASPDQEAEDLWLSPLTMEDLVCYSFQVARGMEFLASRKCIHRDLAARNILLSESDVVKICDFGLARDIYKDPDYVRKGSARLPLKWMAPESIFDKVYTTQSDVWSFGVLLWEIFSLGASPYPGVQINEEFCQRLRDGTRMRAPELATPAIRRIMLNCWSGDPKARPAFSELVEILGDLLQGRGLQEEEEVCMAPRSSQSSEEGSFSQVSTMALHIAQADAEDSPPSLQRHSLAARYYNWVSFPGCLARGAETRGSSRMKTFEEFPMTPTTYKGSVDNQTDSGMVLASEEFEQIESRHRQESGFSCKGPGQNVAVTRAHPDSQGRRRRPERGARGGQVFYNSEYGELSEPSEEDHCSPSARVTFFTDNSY

[23] = molecular target: Receptor-type tyrosine-protein kinase FLT3 (Homo sapiens, UniProt P36888, D835V/ITD); assay: Binding affinity to human FLT3 ITD/D835V double mutant expressed in bacterial expression system by Kinomescan method
[24] = Intrinsic clearance in human liver microsomes preincubated for 5 mins followed by NADPH addition by LC-MS/MS analysis; format: ADME, microsome; conditions: read-out: CLH
Homo sapiens [25] = species: Homo sapiens; assay: Selectivity ratio of IC50 for CDK2 (unknown origin) to IC50 for human FLT3
Homo sapiens [26] = species: Homo sapiens; assay: Selectivity ratio of IC50 for CDK6 (unknown origin) to IC50 for human FLT3

Cc1[nH]nc(C(=O)Nc2ccc(CN3CCN(C)CC3)cc2)c1Nc1ncnc2[nH]ccc12
Activity [1]: 98.5% | activity at 0.123 µM [2]: 99.9% | Activity [3]: 95.7%

O=C(Nc1ccc(N2CCNCC2)cc1)c1n[nH]cc1Nc1nc(Cl)nc2sccc12
IC50 [4]: 0.47 nM | activity at 0.123 µM [2]: 56.8% | IC50 (MV4-11): 26 nM | Activity [3]: 63.6%

Cc1nc(Nc2c[nH]nc2C(=O)Nc2ccc(N3CCN(C)CC3)cc2)c2ccsc2n1
IC50 [4]: 0.95 nM | activity at 0.123 µM [2]: 71.2% | IC50 (MV4-11): 27 nM | Activity [3]: 72.7%

CC(C)c1nc(Nc2c[nH]nc2C(=O)Nc2ccc(N3CCNCC3)cc2)c2ccsc2n1
IC50 [4]: 11.3 nM | activity at 0.123 µM [2]: 101% | IC50 (MV4-11): 57 nM | Activity [3]: 93.5%

Cc1nc(Nc2c[nH]nc2C(=O)Nc2ccc(CN3CCOCC3)cc2)c2ccsc2n1
IC50 [4]: 3.63 nM | activity at 0.123 µM [2]: 52% | IC50 (MV4-11): 62 nM | Activity [3]: 79.7%

Cc1nc(Nc2c[nH]nc2C(=O)Nc2ccc(N3CCOCC3)cc2)c2ccsc2n1
IC50 [4]: 3.8 nM | activity at 0.123 µM [2]: 78.8% | IC50 (MV4-11): 33 nM | Activity [3]: 83.1%

CCc1nc(Nc2c[nH]nc2C(=O)Nc2ccc(N3CCNCC3)cc2)c2ccsc2n1
IC50 [4]: 3.42 nM | activity at 0.123 µM [2]: 86.6% | IC50 (MV4-11): 65 nM | Activity [3]: 87%

CN1CCN(Cc2ccc(NC(=O)c3nn(C)cc3Nc3ncnc4[nH]ccc34)cc2)CC1
Activity [1]: 87.6% | activity at 0.123 µM [2]: 98.5% | Activity [3]: 99.3%

CN1CCN(Cc2ccc(NC(=O)c3n[nH]cc3Nc3nc(C4CC4)nc4sccc34)cc2)CC1
IC50 [4]: 15.7 nM | activity at 0.123 µM [2]: 89.8% | IC50 (MV4-11): 61 nM | Activity [3]: 103%

CC(C)(C)c1nc(Nc2c[nH]nc2C(=O)Nc2ccc(N3CCNCC3)cc2)c2ccsc2n1
IC50 [4]: 20.5 nM | activity at 0.123 µM [2]: 100% | IC50 (MV4-11): 98 nM | Activity [3]: 99.2%

Cc1nc(Nc2c[nH]nc2C(=O)Nc2ccc(CN3CCN(C)CC3)cc2)c2cc(C(C)C)sc2n1
IC50 [5]: 21.5 nM | IC50 [4]: 0.73 nM | inhibition [6]: > 80% | IC50 [7]: 19.2 nM | IC50 (MV4-11): 65 nM | inhibition at 0.123 µM [8]: > 80%

CN1CCN(Cc2ccc(NC(=O)c3n[nH]cc3Nc3ncnc4sccc34)cc2)CC1
half-life [9]: 51 min | IC50 [10]: < 10 nM | IC50 (HL-60): 334 nM | IC50 [11]: < 10 nM | IC50 (K562): 235 nM | IC50 [4]: 0.6 nM | Kd [12]: 1.3 nM | IC50 (CDK6/cyclin D1): < 10 nM | IC50 [13]: 7.35 nM | IC50 [14]: 1.23 nM | IC50 [15]: 1.85 nM | Kd [16]: 7.01 nM | IC50 [17]: 2.67 nM | inhibition [6]: > 80% | IC50 (CDK2/Cyclin A2): < 10 nM | IC50 [18]: 0.54 nM | Drug uptake [19]: 29.7% | IC50 [20]: 13.2 nM | IC50 [7]: 3.33 nM | IC50 (MV4-11): 16 nM | IC50 [21]: 17.5 nM | IC50 (MOLM-13): 39 nM | IC50 [22]: 4.5 nM | Kd [23]: 0.23 nM | microsomal CLint [24]: 13.6 µL/min/mg | inhibition at 0.123 µM [8]: > 80%

Cc1[nH]nc(C(=O)Nc2ccc(CN3CCN(C)CC3)cc2)c1Nc1ncnc2sccc12
Activity [1]: 98.5% | activity at 0.123 µM [2]: 99.7% | Activity [3]: 96.2%

Cc1nc(Nc2c[nH]nc2C(=O)Nc2ccc(CN3CCOCC3)cc2)c2cc(C(C)C)sc2n1
IC50 [5]: 25.4 nM | IC50 [4]: 0.66 nM | inhibition [6]: > 80% | IC50 [7]: 33.2 nM | IC50 (MV4-11): 48 nM | inhibition at 0.123 µM [8]: > 80%

O=C(Nc1ccc(CN2CCOCC2)cc1)c1n[nH]cc1Nc1nc(C2CC2)nc2sccc12
IC50 [4]: 16.5 nM | activity at 0.123 µM [2]: 81.4% | IC50 (MV4-11): 78 nM | Activity [3]: 95.4%

Cc1nc2c(c(Nc3c[nH]nc3C(=O)Nc3ccc(N4CCNCC4)cc3)n1)CCCC2
IC50 [4]: 0.66 nM | activity at 0.123 µM [2]: 79.4% | IC50 (MV4-11): 18 nM | Activity [3]: 87.2%

Cc1nc(Nc2c[nH]nc2C(=O)Nc2ccc(N3CCNCC3)cc2)c2ccsc2n1
IC50 [5]: 81.5 nM | IC50 [4]: 0.62 nM | Ratio IC50 (Homo sapiens [25]): 131 | inhibition [6]: > 80% | IC50 [7]: 84.3 nM | IC50 (MV4-11): 19 nM | Ratio IC50 (Homo sapiens [26]): 131 | inhibition at 0.123 µM [8]: > 80%

O=C(Nc1ccc(N2CCNCC2)cc1)c1n[nH]cc1Nc1nc(C2CC2)nc2sccc12
IC50 [4]: 2.53 nM | activity at 0.123 µM [2]: 97.4% | IC50 (MV4-11): 59 nM | Activity [3]: 88%

Cc1nc(Nc2c[nH]nc2C(=O)Nc2ccc(CN3CCN(C)CC3)cc2)c2ccsc2n1
IC50 [4]: 0.65 nM | Ratio IC50 (Homo sapiens [25]): 100 | activity at 0.123 µM [2]: 51.1% | IC50 (MV4-11): 52 nM | Activity [3]: 72.1% | Ratio IC50 (Homo sapiens [26]): 100
